Measured values as given in ChEMBL document CHEMBL4049447 (J Med Chem, 2017).

What was measured:
[1] = Apparent permeability across apical to basolateral side in human Caco2 cells assessed as drug recovery at 10 uM measured up to 2 hrs by ESI-LC/MS/MS analysis; assay type: ADME, cell-based; details: Caco-2, read-out: Drug recovery
[2] = Apparent permeability across basolateral to apical side in human Caco2 cells assessed as drug recovery at 10 uM measured up to 2 hrs by ESI-LC/MS/MS analysis; assay type: ADME, cell-based; details: Caco-2, read-out: Drug recovery

Structure (SMILES): Nc1ccc2ccc(CCNCCc3cccc(Cl)c3)cc2n1
- recovery at 2 h, 10 µM [1]: 63%
- recovery at 2 h, 10 µM [2]: 103%
